Test results: patent US7452865B2, “Antagonistic analogs of GH RH (2003)” (The Administrare's of the Tulane Educational Fund, priority 2004, dated 2008)
Marks after values point to notes of the source that are not given here. Square brackets hold non-standard residues; d marks the D form. Peptide text beside a SMILES is read from it. * marks the point of attachment. Phe(4-Cl) = N[C@@H](Cc1ccc(Cl)cc1)C(=O)O; hArg = N=C(N)NCCCC[C@H](N)C(=O)O; Nle = CCCC[C@H](N)C(=O)O; Abu = CC[C@H](N)C(=O)O; PhAc = O=C(Cc1ccccc1)*

Tests used:
[1] = tested on: GH-RH receptor isoforms on membrane fractions of human PC-3 prostate tumors; type: binding; conditions: general statement
Method in brief: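 Competitive displacement of [^125I]JV-1-42 from crude membranes of human PC-3 prostate tumours grown as nude-mouse xenografts, with unlabelled peptides at 10^−12 to 10^−6 M. Bound radioactivity in the centrifuged pellet gamma-counted; Ki from Munson–Rodbard analysis. Relative affinity = Ki of reference peptide (JV-1-36 or JV-1-38) / Ki of test antagonist.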

[2] = tested on: IGF-I; assay: PC-3 xenografts, Experiment 4: serum IGF-I (RIA); type: in vivo, nude mice; conditions: 5 μg/day s.c., 28 days; for Serum IGF-I (% inhibition): vs control
Source text: (§1) For the measurement of GH and IGF-I levels in the serum, as well as IGF-I and IGF-II concentrations in the cytosol fraction of tumors, blood samples and tumor samples were collected and processed as described (Braczkowski R, Schally A V, Plonowski A, Varga J L, Groot K, Krupa M, Armatis P, Cancer 95: 1735-1745, 2002), hereby incorporated by reference. Briefly, blood samples are centrifuged to separate the serum, tumors are homogenized and centrifuged to separate the cytosol fraction. Serum GH is then measured by the double-antibody RIA method. Before measurement by RIA, IGF-I and IGF-II are extracted from serum and cytosol fractions using an acid-ethanol cryoprecipitation method that eliminates most of the IGF binding proteins, which can interfere with the RIA. IGF-I concentration is measured by RIA using IGF-I as a standard and goat anti-IGF-I antibody (both from DSL Inc., Webster, Tex.). IGF-II concentration is measured by RIA using human recombinant IGF-II (Bachem) as a standard and anti-IGF-II monoclonal antibody (Amano International Enzyme, Troy, Va.).
(§2) Male nude mice were implanted s.c. with 3 mm^3 pieces of PC-3 human hormone-independent prostate cancer tissue on both flanks. When tumors reached a volume of approximately 65 mm^3, the mice were divided into 7 experimental groups with 8 to 9 animals in each group and received single daily injections for 28 days as follows: 1. Control (vehicle solution); 2. JV-1-38 (10 μg/day s.c.); 3. Peptide 35 (10 μg/day s.c.); 4. Peptide 36 (10 μg/day s.c.); 5. Peptide 37 (10 μd/day s.c.); 6. Peptide 39 (10 μg/day s.c.); 7. Peptide 41 (10 μg/day s.c.). Tumor volumes were measured twice a week. The experiment was ended on day 28 by sacrificing the mice under Isofurane anesthesia. Resulting tumors were cleaned, weighed, and snapfrozen until further analyses. Trunk blood was collected from the abdominal aorta and serum was separated for RIA measurement of IGF-I. Statistical analyses of the measurement results were done by ANOVA followed by Fisher test; data are presented as the means±S.E.
(§3) All experimental details of Experiment 4 are the same as for Experiment 3, with the following difference. When tumors reached a volume of approximately 55 mm^3, the mice were divided into 5 experimental groups with 8 to 9 animals in each group and received single daily injections for 28 days as follows: 1. Control (vehicle solution); 2. Peptide 80 (5 μg/day s.c.); 3. Peptide 86 (5 μg/day s.c.); 4. Peptide 95 (5 μg/day s.c.); 5. Peptide 96 (5 μg/day s.c.). Further details of Experiment 4 are the same as for Experiment 3.

[3] = tested on: PC-3 human prostate cancer xenografts; assay: PC-3 xenografts in nude mice, Experiment 4: tumor growth; type: in vivo; conditions: for Tumor volume (mm^3) Final / Tumor volume doubling time / Tumor weight / Tumor volume Final (% inhibition) / Tumor weight (% inhibition): 5 μg/day s.c., 28 days; for Tumor volume Final (% inhibition) / Tumor weight (% inhibition): vs control; for Tumor volume (mm^3) Initial: at start of treatment
Protocol: as §2, §3

[4] = tested on: IGF-I; assay: PC-3 xenografts, Experiment 2: serum IGF-I (RIA); type: in vivo, nude mice; conditions: 5 μg/day s.c., 28 days
Source text: as §1
(§4) Male nude mice were implanted s.c. with 3 mm^3 pieces of PC-3 human hormone-independent prostate cancer tissue on both flanks. When tumors reached a volume of approx. 50 mm^3, the mice were divided into 5 experimental groups with 7 to 8 animals in each group and received single daily injections for 28 days as follows: 1. Control (vehicle solution); 2. JV-1-38 (10 μg/day s.c.); 3 Peptide 31 (10 μg/day s.c.); 4. Peptide 67 (10 μg/day s.c.); 5. Peptide 62 (10 μg/day s.c.). Tumor volumes were measured twice a week. The experiment was ended on day 29 by sacrificing the mice under Isoflurane anesthesia. Resulting tumors were cleaned, weighed, and snap-frozen until further analyses. Trunk blood was collected from the abdominal aorta and serum was separated for RIA measurement of IGF-I. Statistical analyses of the measurement results were done by two-tailed t-test; data are presented as the means±S.E.
(§5) Experiment 2 was similar to Experiment 1, with the difference that Experiment 2 was started when PC-3 tumors had grown to approximately 30 mm^3 in volume. At this time, the animals were divided into 8 experimental groups with 8 animals in each group, and received single daily injections for 28 days as follows. 1. Control (vehicle solution); 2. JV-1-38 (10 μg/day s.c.); 3. Peptide 46 (5 μg/day: s.c.); 4. Peptide 77 (5 μg/day s.c); 5. Peptide 76 (5 μg/day s.c.); 6. Peptide 70 (5 μg/day s.c.); 7 Peptide 79 (5 μg/day s.c.); 8. Peptide 80 (5 μg/day s.c.). Further details of Experiment 2 are the same as for Experiment 1.

[5] = tested on: PC-3 human prostate cancer xenografts; assay: PC-3 xenografts in nude mice, Experiment 2: tumor growth; type: in vivo
Protocol: as §4, §5

[6] = tested on: hGH-RH(1-29)NH2 induced GH release; assay: Inhibition of GH release in superfused rat pituitary system; type: cell-based
Method in brief: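 GH output was quantified by double-antibody RIA in superfusates of rat pituitary cells. Peptides were applied for 9 min at various concentrations before a 3-min 1 nM hGH-RH(1-29)NH2 pulse, with further pulses 30–120 min later; net integral responses given as percent of the original response.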

[7] = tested on: IGF-I; assay: PC-3 xenografts, Experiment 1: serum IGF-I (RIA); type: in vivo, nude mice; conditions: 10 μg/day s.c., 28 days
Source text: as §1, §4

[8] = tested on: PC-3 human prostate cancer xenografts; assay: PC-3 xenografts in nude mice, Experiment 1: tumor growth; type: in vivo
Protocol: as §4

[9] = 5 μg/day s.c., 28 days, vs control
[10] = 10 μg/day s.c., 28 days, vs control

| binding affinities to the tumoral receptors for GH-RH (in words) [1] | Compound | Serum IGF-I [2] | Serum IGF-I (% inhibition) [2] | Tumor volume (mm^3) Final [3] | Tumor volume doubling time [3] | Tumor weight [3] | Tumor volume Final (% inhibition) [3] | Tumor weight (% inhibition) [3] | Tumor volume (mm^3) Initial [3] | further results |
| --- | --- | --- | --- | --- | --- | --- | --- | --- | --- | --- |
| extremely high binding affinities | [CH3(CH2)6CO-Tyr^1, D-Arg^2, Phe(pCl)^6, Ala^8, His^9, Tyr(Et)^10, His^11, Orn^12, Abu^15, Orn^21, Nle^27, D-Arg^28, Har^29]hGH-RH(1-29)NH2 [Peptide 95] | 127 ± 17.5 ng/mL | 23% | 393 ± 79.8* mm^3 | 12.5 ± 1.80 days | 666 ± 131 mg | 69% | 54% | 60.9 ± 12.2 mm^3 |  |
| extremely high binding affinities | [CH3(CH2)6CO-Tyr^1, D-Arg^2, Phe(pCl)^6, Ala^8, His^9, Tyr(Et)^10, His^11, Abu^15, Nle^27, D-Arg^28, Har^29]hGH-RH(1-29)NH2 [Peptide 80] | 136 ± 15.3 ng/mL | 18% | 398 ± 68.7* mm^3 | 10.7 ± 1.28 days | 752 ± 150 mg | 68% | 48% | 53.2 ± 10.1 mm^3 | Serum IGF-I [4]: 152 ± 7.83 ng/mL; Serum IGF-I (% inhibition) ([4]; vs control): 42%; Tumor volume (mm^3) Initial ([5]; 5 μg/day groups, at start of treatment): 24.8 ± 2.2 mm^3; Tumor volume (mm^3) Final ([5]; 5 μg/day s.c., 28 days): 128 ± 38.9*# mm^3; Tumor volume doubling time ([5]; 5 μg/day s.c., 28 days): 16.7 ± 4.3 days; Tumor weight ([5]; 5 μg/day s.c., 28 days): 137 ± 46.1 mg; Tumor volume Final (% inhibition) [5, 9]: (64%); Tumor weight (% inhibition) [5, 9]: (52%) |
| extremely high binding affinities | [CH3(CH2)6CO-Tyr^1, D-Arg^2, Phe(pCl)^6, Ala^8, His^9, Tyr(Et)^10, His^11, Orn^12, Abu^15, His^20, Orn^21, Nle^27, D-Arg^28, Har^29]hGH-RH(1-29)NH2 [Peptide 96] | 114 ± 15.5 ng/mL | 31% | 301 ± 65.2** mm^3 | 11.0 ± 0.87 days | 489 ± 114 mg | 77% | 66% | 56.2 ± 13.3 mm^3 | antitumor effect on PC-3 tumors (in words) ([3]; 5 μg/day): strongest antitumor effect |
| extremely high binding affinities | [CH3(CH2)6CO-Tyr^1, D-Arg^2, Phe(pCl)^6, Ala^8, His^9, Tyr(Et)^10, His^11, Abu^15, His^20, Nle^27, D-Arg^28, Har^29]hGH-RH(1-29)NH2 [Peptide 86] | 118 ± 8.94 ng/mL | 28% | 397 ± 71.8* mm^3 | 12.1 ± 1.40 days | 643 ± 94.9 mg | 68% | 56% | 56.1 ± 8.67 mm^3 |  |

| Compound | binding affinities to the tumoral receptors for GH-RH (in words) [1] | Serum IGF-I [2] | Serum IGF-I (% inhibition) [2] | Tumor volume (mm^3) Final [3] | Tumor volume doubling time [3] | Tumor weight [3] | Tumor volume Final (% inhibition) [3] | Tumor weight (% inhibition) [3] | Tumor volume (mm^3) Initial [3] | further results |
| --- | --- | --- | --- | --- | --- | --- | --- | --- | --- | --- |
| CCCC[C@H](NC(=O)[C@@H](NC(=O)[C@H](CC(=O)O)NC(=O)[C@H](CCC(N)=O)NC(=O)[C@H](CC(C)C)NC(=O)[C@H](CC(C)C)NC(=O)[C@H](CCCCN)NC(=O)[C@H](CCCNC(=N)N)NC(=O)[C@H](C)NC(=O)[C@H](CO)NC(=O)[C@H](CC(C)C)NC(=O)[C@H](CCC(N)=O)NC(=O)[C@H](CC)NC(=O)[C@H](CC(C)C)NC(=O)[C@@H](NC(=O)[C@H](CCCCN)NC(=O)[C@H](Cc1c[nH]cn1)NC(=O)[C@H](Cc1ccc(OC)cc1)NC(=O)[C@H](CCCCNC(=N)N)NC(=O)[C@H](CC(N)=O)NC(=O)[C@@H](NC(=O)[C@H](Cc1ccc(Cl)cc1)NC(=O)[C@@H](NC(=O)[C@H](C)NC(=O)[C@H](CC(=O)O)NC(=O)[C@@H](CCCNC(=N)N)NC(=O)[C@H](Cc1ccc(O)cc1)NC(=O)Cc1ccccc1)[C@@H](C)CC)[C@@H](C)O)C(C)C)[C@@H](C)CC)C(=O)N[C@H](CCCNC(=N)N)C(=O)N[C@@H](CCCCNC(=N)N)C(N)=O [Peptide 62, [PhAc-Tyr^1, D-Arg^2, Phe(pCl)^6, Har^9, Tyr(Me)^10, His^11, Abu^15, Nle^27, D-Arg^28, Har^29]hGH-RH(1-29)NH2] (PhAc-Y[dR]DAI[Phe(4-Cl)]TN[hArg]Y(Me)HKVL[Abu]QLSARKLLQDI[Nle][dR][hArg]-NH2) | extremely high binding affinities |  |  |  |  |  |  |  |  | GH response (% of control) 0 min ([6]; antagonist 30 nM, 1 nM hGH-RH(1-29)NH2 at 0 min): 20 % of control; GH response (% of control) 30 min ([6]; antagonist 30 nM, 1 nM hGH-RH(1-29)NH2 at 30 min): 16 % of control; GH response (% of control) 60 min ([6]; antagonist 30 nM, 1 nM hGH-RH(1-29)NH2 at 60 min): 14 % of control; GH response (% of control) 90 min ([6]; antagonist 30 nM, 1 nM hGH-RH(1-29)NH2 at 90 min): 21 % of control; GH response (% of control) 120 min ([6]; antagonist 30 nM, 1 nM hGH-RH(1-29)NH2 at 120 min): 21 % of control; endocrine antagonistic potency: inhibition of the GH release stimulated by hGH-RH(1-29)NH2 (in words) ([6]; general statement, in vitro and in vivo): high endocrine antagonistic potencies; Serum IGF-I [7]: 141 ± 8.86 ng/mL; Serum IGF-I (% inhibition) ([7]; vs control): (5%); Tumor volume (mm^3) Final ([8]; 10 μg/day s.c., 28 days): 215 ± 50.4 mm^3; Tumor volume doubling time ([8]; 10 μg/day s.c., 28 days): 18.4 ± 4.96 days; Tumor volume Final (% inhibition) [8, 10]: (57%); Tumor weight (% inhibition) [8, 10]: (47%); inhibitory effect on the growth of PC-3 tumors (in words) ([8]; 10 μg/day s.c., compared with JV-1-38): stronger inhibitory effect on the growth of PC-3 tumors than the reference peptide JV-1-38; Tumor volume (mm^3) Initial ([8]; at start of treatment): 56.1 ± 18.2 mm^3 |
